Test results as given in US11013726B2 (Arbutus Biopharma Corporation, priority 2016, dated 2021).

System: HBsAg
Experiment: HBsAg assay
Type: cell-based, hepatitis B virus
Settings: Hepatitis B virus, HepG2.2.15, 144 h, read-out: sAg EC50, μM, HepG2.2.15 cells, day 6
How it was run: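 HepG2.2.15 cells were treated with serially diluted compounds (0.5% DMSO), with medium and compound renewed after 2-3 days. Secreted HBsAg measured at day 6 by chemiluminescence immunoassay; EC50 from dose-response curves. Viability assessed in parallel by CellTiter-Glo.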

For `C=C1COc2cc3c(cc2OC1)-c1cc(=O)c(CO)cn1C(C(C)(C)C)C3` (centres unmarked) [Example 101, 6-(Tert-butyl)-3-(hydroxymethyl)-1-methylene-6,7,11,12-tetrahydro-2H,10H-[1,4]dioxepino[2,3-g]pyrido[2,1-a]isoquinolin-2-one], which EC50 is on record?
The EC50 was 5.8 µM.

Which EC50 does the source give for `CCOP(=O)(O)c1cn2c(cc1=O)-c1cc(Cl)c(OCCCOC)cc1CC2C(C)(C)C` (centres unmarked) [Example 106, Ethyl hydrogen (6-(tert-butyl)-10-chloro-9-(3-methoxypropoxy)-2-oxo-6,7-dihydro-2H-pyrido[2,1-a]isoquinolin-3-yl)phosphonate] here?
The EC50 was 7.2 µM.

How did the EC50 turn out when `COCCCOc1cc2c(cc1Cl)-c1cc(=O)c(NS(=O)(=O)C(F)(F)F)cn1C(C(C)(C)C)C2` (centres unmarked) [Example 128, N-(6-(Tert-butyl)-10-chloro-9-(3-methoxypropoxy)-2-oxo-6,7-dihydro-2H-pyrido[2,1-a]isoquinolin-3-yl)-1,1,1-trifluoromethanesulfonamide] was run?
Its EC50 is 4.7 µM.

Which EC50 does the source give for `COCCCOc1cc2c(cc1Cl)-c1cc(=O)c(I)cn1C(C(C)(C)C)C2` (centres unmarked) [Example 131, 6-Tert-butyl-10-chloro-3-iodo-9-(3-methoxypropoxy)-6H,7H-pyrido[2,1-a]isoquinolin-2-one] here?
The EC50 was 2.4 µM.

How did the EC50 turn out when `CCC1(CC)Cc2cc(OCCCOC)c(OC)nc2-c2cc(=O)c(C(=O)O)cn21` [Example 162, 6,6-Diethyl-2-methoxy-3-(3-methoxypropoxy)-10-oxo-5,10-dihydro-6H-pyrido[1,2-h][1,7]naphthyridine-9-carboxylic acid] was run?
Its EC50 is 0.014 µM.

Which EC50 does the source give for `COCCN(C)c1cc2c(cc1Cl)-c1cc(=O)c(C(=O)O)cn1[C@H](C(C)C)CO2` [Example 65, (R)-2-Chloro-7-isopropyl-3-((2-methoxyethyl)(methyl)amino)-11-oxo-6,7-dihydro-11H-benzo[f]pyrido[1,2-d][1,4]oxazepine-10-carboxylic acid] here?
The EC50 was 0.27 µM.

With `CCc1cc2c(cc1OCCCOC)OC[C@@H](C(C)C)n1cc(C(=O)O)c(=O)cc1-2` [Example 47, (R)-2-Ethyl-7-isopropyl-3-(3-methoxypropoxy)-11-oxo-6,7-dihydro-11H-benzo[f]pyrido[1,2-d][1,4]oxazepine-10-carboxylic acid] as the compound, how does the EC50 read?
The EC50 was 0.006 µM.

`Cc1cc2c(cc1OCC1CC1)OC[C@@H](C(C)C)n1cc(C(=O)O)c(=O)cc1-2` [Example 49, (R)-3-(Cyclopropylmethoxy)-7-isopropyl-2-methyl-11-oxo-6,7-dihydro-11H-benzo[f]pyrido[1,2-d][1,4]oxazepine-10-carboxylic acid] was tested. Which EC50 did it give?
The EC50 was 0.049 µM.

`COc1cc2c(cc1Cl)-c1cc(=O)c(C(=O)O)cn1C(CC(C)C)CO2` (centres unmarked) [Example 5, 2-Chloro-7-isobutyl-3-methoxy-11-oxo-6,7-dihydro-11H-benzo[f]pyrido[1,2-d][1,4]oxazepine-10-carboxylic acid] was tested. Which EC50 did it give?
Its EC50 is 0.91 µM.

`COCCCOc1cc2c(nc1OC)-c1cc(=O)c(-c3ncn[nH]3)cn1[C@H](C(C)C)C2` [Example 116, (S)-6-Isopropyl-2-methoxy-3-(3-methoxypropoxy)-9-(1H-1,2,4-triazol-5-yl)-5,6-dihydro-10H-pyrido[1,2-h][1,7]naphthyridin-10-one] was tested. Which EC50 did it give?
The EC50 was 0.009 µM.

`COCCCOc1cc2c(cc1C)-c1cc(=O)c(C(=O)O)cn1[C@H](C(C)C)CO2` [Example 46, (R)-7-Isopropyl-3-(3-methoxypropoxy)-2-methyl-11-oxo-6,7-dihydro-11H-benzo[f]pyrido[1,2-d][1,4]oxazepine-10-carboxylic acid] was tested. Which EC50 did it give?
The EC50 was 0.039 µM.

How did the EC50 turn out when `CCc1cc2c(cc1OCC(F)(F)F)OC[C@@H](C(C)C)n1cc(C(=O)O)c(=O)cc1-2` [Example 58, (R)-2-Ethyl-7-isopropyl-11-oxo-3-(2,2,2-trifluoroethoxy)-6,7-dihydro-11H-benzo[f]pyrido[1,2-d][1,4]oxazepine-10-carboxylic acid] was run?
Its EC50 is 0.021 µM.

Which EC50 does the source give for `CC(C)[C@@H]1COc2cc(OCCCO)c(Cl)cc2-c2cc(=O)c(C(=O)O)cn21` [Example 36, (R)-2-Chloro-3-(3-hydroxypropoxy)-7-isopropyl-11-oxo-6,7-dihydro-11H-benzo[f]pyrido[1,2-d][1,4]oxazepine-10-carboxylic acid] here?
Its EC50 is 0.019 µM.

`CC(C)[C@@H]1COc2cc(OCCCNC(=O)OC(C)(C)C)c(C3CC3)cc2-c2cc(=O)c(C(=O)O)cn21` [Example 53, (R)-3-(3-((tert-Butoxycarbonyl)amino)propoxy)-2-cyclopropyl-7-isopropyl-11-oxo-6,7-dihydro-11H-benzo[f]pyrido[1,2-d][1,4]oxazepine-10-carboxylic acid] was tested. Which EC50 did it give?
The EC50 was 0.013 µM.

For `CCOC(=O)c1cn2c(cc1=O)-c1nc(OC)ccc1[C@H]2C(C)C` [Example 173, (R)-ethyl-5-isopropyl-2-methoxy-9-oxo-5,9-dihydropyrido[2,3-a]indolizine-8-carboxylate], which EC50 is on record?
Its EC50 is 8.6 µM.

`CC(C)[C@@H]1COc2cc(OCCCCO)c(Cl)cc2-c2cc(=O)c(C(=O)O)cn21` [Example 39, (R)-2-Chloro-3-(4-hydroxybutoxy)-7-isopropyl-11-oxo-6,7-dihydro-11H-benzo[f]pyrido[1,2-d][1,4]oxazepine-10-carboxylic acid] was tested. Which EC50 did it give?
The EC50 was 0.014 µM.

How did the EC50 turn out when `COCCCOc1cc2c(cc1Cl)-c1cc(=O)c(NS(=O)(=O)CC(F)(F)F)cn1C(C(C)(C)C)C2` (centres unmarked) [Example 127, N-[6-Tert-butyl-10-chloro-9-(3-methoxypropoxy)-2-oxo-6H,7H-pyrido[2,1-a]isoquinolin-3-yl]-2,2,2-trifluoroethanesulfonamide] was run?
Its EC50 is 15 µM.

For `COCCCOc1cc2c(nc1Cl)-c1cc(=O)c(C(=O)O)cn1[C@H](C(C)C)CO2` [Example 68, (R)-2-Chloro-7-isopropyl-3-(3-methoxypropoxy)-11-oxo-6,7-dihydro-11H-dipyrido[1,2-d:2′,3′-f][1,4]oxazepine-10-carboxylic acid], which EC50 is on record?
Its EC50 is 0.017 µM.

Which EC50 does the source give for `COCCCOc1cc2c(cc1Cl)-c1cc(=O)c(C(=O)O)cn1[C@H](C(C)C)CO2` [Example 27, (R)-2-Chloro-7-isopropyl-3-(3-methoxypropoxy)-11-oxo-6,7-dihydro-11H-benzo[f]pyrido[1,2-d][1,4]oxazepine-10-carboxylic acid] here?
The EC50 was 0.011 µM.

For `COCCCOc1cc2c(cc1Cl)-c1cc(=O)c(Nc3ncccn3)cn1C(C(C)(C)C)C2` (centres unmarked) [Example 129, 6-(Tert-butyl)-10-chloro-9-(3-methoxypropoxy)-3-(pyrimidin-2-ylamino)-6,7-dihydro-2H-pyrido[2,1-a]isoquinolin-2-one], which EC50 is on record?
The EC50 was 5.9 µM.

For `COCCCOc1cc2c(cc1Cl)-c1cc(=O)c(N(C)C(=O)OC(C)(C)C)cn1[C@H](C(C)C)CO2` [Example 141, Tert-butyl (R)-(2-chloro-7-isopropyl-3-(3-methoxypropoxy)-11-oxo-6,7-dihydro-11H-benzo[f]pyrido[1,2-d][1,4]oxazepin-10-yl)(methyl)carbamate], which EC50 is on record?
Its EC50 is 1 µM.

How did the EC50 turn out when `COCCCOc1cc2c(nc1OC)-c1cc3n[nH]c(=O)c-3cn1[C@H](C(C)C)C2` [Example 153, (S)-6-Isopropyl-2-methoxy-3-(3-methoxypropoxy)-5,10-dihydropyrazolo[3′,4′:4,5]pyrido[1,2-h][1,7]naphthyridin-9(6H)-one] was run?
Its EC50 is 0.23 µM.

For `COc1nc2c(cc1Cl)-c1cc(=O)c(C(=O)O)cn1C(C(C)C)CO2` (centres unmarked) [Example 104, 2-Chloro-7-isopropyl-3-methoxy-11-oxo-6,7-dihydro-11H-dipyrido[1,2-d:3′,2′-f][1,4]oxazepine-10-carboxylic acid], which EC50 is on record?
Its EC50 is 24.2 µM.

Which EC50 does the source give for `CC(C)(C)C1Cc2cc3c(cc2-c2cc(=O)c(C(=O)O)cn21)OCC(O)CO3` (centres unmarked) [Example 103, 6-(Tert-butyl)-11-hydroxy-2-oxo-6,7,11,12-tetrahydro-2H,10H-[1,4]dioxepino[2,3-g]pyrido[2,1-a]isoquinoline-3-carboxylic acid] here?
Its EC50 is 0.05 µM.

Which EC50 does the source give for `COc1cc2c(cc1Cl)-c1cc(=O)c(C(=O)O)cn1C(CO)CO2` (centres unmarked) [Example 9] here?
The EC50 was 8.6 µM.

For `COCCCOc1cc2c(cc1Cl)-c1cc(=O)c(P(=O)(O)O)cn1C(C(C)(C)C)C2` (centres unmarked) [Example 107, (6-(Tert-butyl)-10-chloro-9-(3-methoxypropoxy)-2-oxo-6,7-dihydro-2H-pyrido[2,1-a]isoquinolin-3-yl)phosphonic acid], which EC50 is on record?
The EC50 was 2.5 µM.

For `COc1cc2c(cn1)-c1cc(=O)c(C(=O)O)cn1C(C(C)C)C2` (centres unmarked) [Example 86, 6-isopropyl-3-methoxy-10-oxo-5,10-dihydro-6H-pyrido[2,1-a][2,7]naphthyridine-9-carboxylic acid], which EC50 is on record?
The EC50 was 1 µM.

Which EC50 does the source give for `COCCCOc1cc2c(cc1OC)-c1cc(=NOC)c(C(=O)O)cn1C(C(C)C)C2` (centres unmarked) [Example 149] here?
The EC50 was 7.4 µM.

Same assay, conditions: read-out: sAg EC50; HepG2.2.15 cells, day 6

For `CC(C)(C)C1Cc2cc3c(cc2-c2cc(=O)c(C(=O)O)cn21)OCCCO3` (single isomer, unassigned) [Example 91, 6-(Tert-butyl)-2-oxo-6,7,11,12-tetrahydro-2H,10H-[1,4]dioxepino[2,3-g]pyrido[2,1-a]isoquinoline-3-carboxylic acid], which EC50 is on record?
Its EC50 is 0.94 µM.

`COCCCOc1cc2c(nc1Cl)-c1cc(=O)c(C(=O)O)cn1C1C(CCC1(C)C)O2` (single isomer, unassigned) [Example 83, 6-Chloro-7-(3-methoxypropoxy)-12,12-dimethyl-3-oxo-9a,11,12,12a-tetrahydro-3H,10H-cyclopenta[b]dipyrido[1,2-d:2′,3′-f][1,4]oxazepine-2-carboxylic acid] was tested. Which EC50 did it give?
Its EC50 is 1 µM.

How did the EC50 turn out when `CC(C)(C)C1Cc2cc3c(cc2-c2cc(=O)c(C(=O)O)cn21)OCCCO3` (single isomer, unassigned) [Example 92, 6-(Tert-butyl)-2-oxo-6,7,11,12-tetrahydro-2H,10H-[1,4]dioxepino[2,3-g]pyrido[2,1-a]isoquinoline-3-carboxylic acid] was run?
Its EC50 is 0.011 µM.

For `COCCCOc1cc2c([nH]c1=O)-c1cc(=O)c(C(=O)O)cn1C(C(C)C)C2` (single isomer, unassigned) [Example 167, 6-Isopropyl-3-(3-methoxypropoxy)-2,10-dioxo-2,5,6,10-tetrahydro-1H-pyrido[1,2-h][1,7]naphthyridine-9-carboxylic acid], which EC50 is on record?
The EC50 was 1 µM.
